Bases are written 5' to 3'; sugars and linkages follow in the same order, as letters with counts (s phosphorothioate, o phosphodiester; PS: all linkages phosphorothioate). The collection does not say whether C is 5-methylated. l = locked nucleic acid (LNA); d = 2'-deoxy (DNA)
Biological target: Tau
Experiment: rat primary cortical neurons, FLIPR, 25 uM ASO

Compared with “AAAAAGTCCATTCCCTC (sugars l3 d10 l4, PS)”, “AAAACATTCTCACCAAACCC (sugars l4 d14 l2, PS)” is higher in calcium oscillation score: 64 % of control for the first, 83.5 % of control for the second.

Going from “AAAAGTCCATTCCCTCC (sugars l2 d12 l3, PS)” to “AAAATACTCCTCCCTTA (sugars l3 d10 l4, PS)”, the calcium oscillation score rises from 64 % of control to 67.1 % of control.

Compared with “AAAATATCCTTACCATCC (sugars l4 d10 l4, PS)”, “AAAATATCCTTACCATCCT (sugars l2 d13 l4, PS)” is higher in calcium oscillation score: 70.2 % of control for the first, 73.9 % of control for the second.

Compared with “AAAATATCCTTACCATCCTA (sugars l3 d14 l3, PS)”, “AAAATCCTTAATTTAACCAC (sugars l4 d12 l4, PS)” is lower in calcium oscillation score: 75.5 % of control for the first, 64 % of control for the second.

Going from AAACAGGATACAGT (sugars l3 d8 l3, PS) to “AAACATCTAAACACCTCAAT (sugars l4 d12 l4, PS)”, the calcium oscillation score falls from 109 % of control to 78.9 % of control.

Going from “AAACCAACTCAACATTACCC (sugars l3 d15 l2, PS)” to AAACCATGATCTTAGG (sugars l3 d10 l3, PS), the calcium oscillation score falls from 94.3 % of control to 81.3 % of control.

Going from “AAACTCATTTACCAATTAT (sugars l4 d11 l4, PS)” to “AAACTCATTTACCAATTATC (sugars l4 d12 l4, PS)”, the calcium oscillation score falls from 70.7 % of control to 56.8 % of control.

First: AAACTTTTACTCTGACT (sugars l4 d9 l4, PS)
Second: AAAGATGAAATTTGCTCTTA (sugars l3 d14 l3, PS)
The calcium oscillation score of the first is lower: 59.4 % of control for the first, 145 % of control for the second.

Compared with “AAAGCAGGTTAAGTGATTAA (sugars l3 d14 l3, PS)”, AAAGTACTATCCACTT (sugars l4 d8 l4, PS) is higher in calcium oscillation score: 2.59 % of control for the first, 79.1 % of control for the second.

Compared with “AAATATCCTTACCATCCTAT (sugars l2 d15 l3, PS)”, “AAATCAATTCTCATTTCAAC (sugars l4 d12 l4, PS)” is lower in calcium oscillation score: 78.8 % of control for the first, 58.2 % of control for the second.

Going from “AAATCCCTCTACTCCAG (sugars l2 d12 l3, PS)” to “AAATCCTTAATTTAACCACA (sugars l4 d12 l4, PS)”, the calcium oscillation score rises from 51.4 % of control to 63.1 % of control.

Going from “AACAAACAAAAATCCCCTA (sugars l4 d11 l4, PS)” to “AACAAACATCTAAACACCTC (sugars l3 d13 l4, PS)”, the calcium oscillation score falls from 85.7 % of control to 75.1 % of control.

Compared with “AACACCTTTTAATTCATT (sugars l4 d10 l4, PS)”, “AACAGGAGAGCCATTTCCCA (sugars l3 d14 l3, PS)” is lower in calcium oscillation score: 74.8 % of control for the first, 57.1 % of control for the second.

Going from “AACATATATATTACACTTC (sugars l4 d11 l4, PS)” to AACATCACCAGCCTTC (sugars l3 d9 l4, PS), the calcium oscillation score falls from 111 % of control to 50.7 % of control.

Going from AACATCATGTCACACA (sugars l4 d8 l4, PS) to AACATCATGTCACACAC (sugars l4 d9 l4, PS), the calcium oscillation score falls from 56.3 % of control to 39 % of control.

Going from “AACATCTAAACACCTCAA (sugars l4 d10 l4, PS)” to “AACATCTAAACACCTCAATC (sugars l4 d12 l4, PS)”, the calcium oscillation score falls from 78.9 % of control to 77.6 % of control.

Going from “AACATTCTCACCAAACCCA (sugars l3 d14 l2, PS)” to “AACCAACTCAACATTACCCT (sugars l2 d16 l2, PS)”, the calcium oscillation score rises from 78.4 % of control to 86.7 % of control.

Going from “AACCAACTTTCATCTACT (sugars l4 d11 l3, PS)” to “AACCAACTTTCATCTACTTT (sugars l4 d14 l2, PS)”, the calcium oscillation score falls from 73.5 % of control to 63 % of control.

Compared with AACCAATTAACCGAAC (sugars l3 d10 l3, PS), “AACCAATTAACCGAACTGCG (sugars l3 d14 l3, PS)” is lower in calcium oscillation score: 138 % of control for the first, 18.1 % of control for the second.

First: AACCACTCTAACATCTT (sugars l4 d9 l4, PS)
Second: AACCACTCTAACATCTTA (sugars l4 d11 l3, PS)
The calcium oscillation score of the first is higher: 88.3 % of control for the first, 86.8 % of control for the second.

First: AACCACTCTTATTCTTTAA (sugars l4 d11 l4, PS)
Second: AACCACTCTTATTCTTTAAA (sugars l4 d12 l4, PS)
The calcium oscillation score of the first is lower: 77.1 % of control for the first, 91.3 % of control for the second.

Going from “AACCAGCTAGTGGTGCCACC (sugars l3 d14 l3, PS)” to “AACCATTAACTGCCTAT (sugars l4 d10 l3, PS)”, the calcium oscillation score rises from 33 % of control to 53 % of control.

Compared with AACCCCATAGACATAA (sugars l4 d8 l4, PS), “AACCCCTTCAACATCAGC (sugars l2 d12 l4, PS)” is lower in calcium oscillation score: 78.6 % of control for the first, 64.9 % of control for the second.

Compared with “AACCGTTTTCTTACCAC (sugars l2 d11 l4, PS)”, “AACGCACCAGGAACCTTCCA (sugars l3 d14 l3, PS)” is lower in calcium oscillation score: 60.1 % of control for the first, 51.4 % of control for the second.

Going from AACTAAATTTACCTCA (sugars l4 d8 l4, PS) to “AACTCAAATCAATTCTCATT (sugars l4 d12 l4, PS)”, the calcium oscillation score falls from 88.1 % of control to 73.2 % of control.

First: AACTCATCAACACCTTTTAA (sugars l3 d13 l4, PS)
Second: AACTCATTTACCAATTATCT (sugars l4 d13 l3, PS)
The calcium oscillation score of the first is higher: 70.8 % of control for the first, 67.3 % of control for the second.

First: AACTCTAAGTAGACCCTGGC (sugars l3 d14 l3, PS)
Second: AACTGATTCCATCACCA (sugars l3 d11 l3, PS)
The calcium oscillation score of the first is lower: 14.3 % of control for the first, 69.7 % of control for the second.

Going from AACTGCGAGGAGCAGC (sugars l3 d10 l3, PS) to AACTGGTTAGCCCTAA (sugars l3 d10 l3, PS), the calcium oscillation score rises from 25.9 % of control to 31.3 % of control.

AACTGGTTTGTAGACT (sugars l3 d10 l3, PS) and “AACTGGTTTGTAGACTATTT (sugars l3 d14 l3, PS)” are the same in calcium oscillation score: 0 % of control for the first, 0 % of control for the second.

Going from AACTTACCAGTTTTTCA (sugars l4 d9 l4, PS) to AACTTCTAATTTAGTC (sugars l4 d8 l4, PS), the calcium oscillation score rises from 62.3 % of control to 81.9 % of control.

Going from “AACTTCTAGTTATACAGTTG (sugars l3 d14 l3, PS)” to AACTTTTACTCTGACTA (sugars l4 d9 l4, PS), the calcium oscillation score rises from 26.2 % of control to 51.9 % of control.

Compared with “AAGACCAAGCAGAGATAAAC (sugars l3 d14 l3, PS)”, AAGAGGCACAAGTCCT (sugars l3 d10 l3, PS) is higher in calcium oscillation score: 16.7 % of control for the first, 81.6 % of control for the second.

Going from AAGAGGGCAGCAGGCC (sugars l3 d10 l3, PS) to “AAGAGTCACTGCACTGCATT (sugars l3 d14 l3, PS)”, the calcium oscillation score falls from 73.1 % of control to 30.9 % of control.

First: AAGATACATGCGTCCT (sugars l3 d10 l3, PS)
Second: AAGATGAAATTTGCTC (sugars l3 d10 l3, PS)
The calcium oscillation score of the first is lower: 112 % of control for the first, ≥ 200 % of control for the second.

Compared with AAGCAATAGCAAACA (sugars l3 d9 l3, PS), “AAGCAGGTTAAGTGATTAAC (sugars l3 d14 l3, PS)” is lower in calcium oscillation score: 142 % of control for the first, 12.9 % of control for the second.

First: AAGCATTTCAAGATAC (sugars l3 d10 l3, PS)
Second: AAGCCCATTTACAATTC (sugars l4 d10 l3, PS)
The calcium oscillation score of the first is lower: 66.7 % of control for the first, 81.1 % of control for the second.

Going from “AAGCTTCCACATTTTAC (sugars l4 d10 l3, PS)” to AAGGTCAGCTTGTGGG (sugars l3 d10 l3, PS), the calcium oscillation score falls from 68.4 % of control to 11.4 % of control.

First: AAGTCCCGAGCCAAA (sugars l3 d9 l3, PS)
Second: AAGTCCCGAGCCAAAG (sugars l3 d10 l3, PS)
The calcium oscillation score of the first is higher: 102 % of control for the first, 91.8 % of control for the second.

Compared with “AAGTCCCGAGCCAAAGCCGA (sugars l3 d14 l3, PS)”, “AAGTGATTAACCAATTAACC (sugars l3 d14 l3, PS)” is higher in calcium oscillation score: 0 % of control for the first, 57 % of control for the second.

Compared with AATAACATTAACCCTT (sugars l4 d8 l4, PS), AATAAGAAAGGAACGC (sugars l3 d9 l4, PS) is higher in calcium oscillation score: 72 % of control for the first, 85.7 % of control for the second.

Going from AATAAGAAAGGAACGC (sugars l3 d10 l3, PS) to AATAAGAAAGGAACGC (sugars l4 d7 l5, PS), the calcium oscillation score falls from 110 % of control to 97.6 % of control.

Compared with AATAAGAAAGGAACGC (sugars l4 d8 l4, PS), AATAAGAAAGGAACGC (sugars l4 d9 l3, PS) is higher in calcium oscillation score: 5.95 % of control for the first, 102 % of control for the second.

First: AATAAGAAAGGAACGC (sugars l5 d6 l5, PS)
Second: AATAAGAAAGGAACGC (sugars l5 d7 l4, PS)
The calcium oscillation score of the first is lower: 113 % of control for the first, 121 % of control for the second.

Going from “AATACAAACAGCCTCCC (sugars l2 d12 l3, PS)” to “AATACATCAATAGAAGGCAA (sugars l3 d14 l3, PS)”, the calcium oscillation score falls from 61.6 % of control to 16.1 % of control.

Compared with “AATAGATCTTTCCCCTCC (sugars l2 d13 l3, PS)”, AATAGCAAACAGGAT (sugars l3 d9 l3, PS) is lower in calcium oscillation score: 76.7 % of control for the first, 3.83 % of control for the second.

Going from AATAGCAAACAGGATA (sugars l3 d10 l3, PS) to “AATATCCTTACCATCCTATC (sugars l2 d14 l4, PS)”, the calcium oscillation score falls from 82.4 % of control to 59.1 % of control.

Going from AATATTACACCATCCA (sugars l4 d8 l4, PS) to AATATTACACCATCCAA (sugars l4 d9 l4, PS), the calcium oscillation score falls from 101 % of control to 95.7 % of control.

Going from AATATTACATCAGTCT (sugars l4 d8 l4, PS) to “AATCAATTCTCATTTCAACC (sugars l4 d13 l3, PS)”, the calcium oscillation score rises from 34.6 % of control to 63.9 % of control.

Going from “AATCCATTTATATTCTTTTA (sugars l4 d12 l4, PS)” to “AATCCCAGTTTCCCCCA (sugars l4 d11 l2, PS)”, the calcium oscillation score rises from 38.5 % of control to 65.6 % of control.

First: AATCCTGTGCTTCA (sugars l3 d8 l3, PS)
Second: AATCCTGTGCTTCAG (sugars l3 d9 l3, PS)
The calcium oscillation score of the first is lower: 9.58 % of control for the first, 57.5 % of control for the second.

Going from AATCCTGTGCTTCAGG (sugars l3 d10 l3, PS) to “AATCCTTAATTTAACCACAT (sugars l4 d13 l3, PS)”, the calcium oscillation score falls from 73 % of control to 56.8 % of control.

Compared with “AATGTCCAAAAATCCCC (sugars l2 d11 l4, PS)”, AATTAAATTTCTCCCTG (sugars l4 d9 l4, PS) is lower in calcium oscillation score: 53 % of control for the first, 34.1 % of control for the second.

Going from “AATTAACATATTTTTACCT (sugars l4 d11 l4, PS)” to AATTAACCGAACTGCG (sugars l3 d10 l3, PS), the calcium oscillation score rises from 75.1 % of control to 186 % of control.

Compared with AATTAGTCACATACCA (sugars l4 d8 l4, PS), “AATTATTAAATCTTCTCTTA (sugars l4 d12 l4, PS)” is lower in calcium oscillation score: 85 % of control for the first, 62.6 % of control for the second.

For AATTATTTACACTGTCC (sugars l4 d9 l4, PS), the calcium oscillation score was 55.6 % of control.

Reference: the OligoGym collection
